One block for each compound: values may come before it. Calls of active or inactive are those of the source. The rule behind the calls is not given here.
Columns and labels:
[1] = biological target: T1, Polyunsaturated fatty acid 5-lipoxygenase (Homo sapiens) (UniProt P09917); test: Inhibition of human 5-LO transfected in HEK293 cells coexpressing FLAP assessed as leukotriene formation at 1 uM using arachidonic acid as substrate preincubated for 5 mins followed by calcium ionophore A23187/arachidonic acid addition and measured after 15 mins by RP-HPLC analysis relative to control; format: cell-based; design: scale not given: the % may be the effect or the level left
T1 sequence (whole entry): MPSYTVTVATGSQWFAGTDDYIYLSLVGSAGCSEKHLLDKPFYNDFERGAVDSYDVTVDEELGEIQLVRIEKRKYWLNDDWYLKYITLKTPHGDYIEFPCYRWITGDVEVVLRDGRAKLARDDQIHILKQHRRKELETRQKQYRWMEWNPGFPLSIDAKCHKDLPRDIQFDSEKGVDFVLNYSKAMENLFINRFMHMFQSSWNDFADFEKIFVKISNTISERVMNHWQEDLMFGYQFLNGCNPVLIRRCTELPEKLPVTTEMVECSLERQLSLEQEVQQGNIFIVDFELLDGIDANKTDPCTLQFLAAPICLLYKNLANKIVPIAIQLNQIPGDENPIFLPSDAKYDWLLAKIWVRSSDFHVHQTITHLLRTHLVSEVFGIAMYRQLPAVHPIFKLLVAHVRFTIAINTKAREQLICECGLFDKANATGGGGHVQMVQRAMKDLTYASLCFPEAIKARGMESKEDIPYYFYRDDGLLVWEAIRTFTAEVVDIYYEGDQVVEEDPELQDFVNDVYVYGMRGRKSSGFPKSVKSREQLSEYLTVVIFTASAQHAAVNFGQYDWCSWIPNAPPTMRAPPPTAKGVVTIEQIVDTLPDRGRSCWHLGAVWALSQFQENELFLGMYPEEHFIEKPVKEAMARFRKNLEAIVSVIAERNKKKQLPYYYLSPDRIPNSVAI

[2] = biological target: T1, Polyunsaturated fatty acid 5-lipoxygenase (Homo sapiens); test: Inhibition of 5-LO in human PMNL cells assessed as reduction in leukotriene formation at 1 uM preincubated for 5 mins followed by thapsigargin stimulation measured after 15 mins by RP-HPLC analysis relative to control; format: cell-based
[3] = biological target: T1, Polyunsaturated fatty acid 5-lipoxygenase (Homo sapiens); test: (§1) Inhibition of 5-LO in human PMNL cells assessed as reduction in leukotriene formation preincubated for 5 mins followed by thapsigargin stimulation measured after 15 mins by RP-HPLC analysis; format: cell-based
[4] = biological target: T2, Polyunsaturated fatty acid 5-lipoxygenase (Homo sapiens, UniProt P09917); test: as §1; format: cell-based
T2 sequence (P09917 whole entry): T1 sequence (whole entry)

[5] = biological target: T1, Polyunsaturated fatty acid 5-lipoxygenase (Homo sapiens); test: Potency index, ratio of Zileuton IC50 to compound IC50 for inhibition of 5-LO in human PMNL cells assessed as reduction in leukotriene formation preincubated for 5 mins followed by thapsigargin stimulation measured after 15 mins by RP-HPLC analysis; format: cell-based
[6] = biological target: T1, Polyunsaturated fatty acid 5-lipoxygenase (Homo sapiens); test: Potency index, ratio of CAPE IC50 to compound IC50 for inhibition of 5-LO in human PMNL cells assessed as reduction in leukotriene formation preincubated for 5 mins followed by thapsigargin stimulation measured after 15 mins by RP-HPLC analysis; format: cell-based
[7] = Antioxidant activity assessed as DPPH radical scavenging activity incubated for 30 mins under dark condition; format: functional
[8] = Cytotoxicity against VHL-positive human RCC10 cells assessed as reduction in cell viability incubated for 4 days by XTT assay; format: functional, cell-based; conditions: 96 h
RCC4 [9] = test: Induction of autophagy in VHL-deficient human RCC4 cells assessed as increase in conversion of LC3B1 to LC3B2 expression at 2.5 to 10 uM incubated for 24 hrs by Western blot analysis; format: functional, cell-based
RCC4 [10] = test: Cytotoxicity against VHL-deficient human RCC4 cells assessed as reduction in cell viability incubated for 4 days by XTT assay; format: functional, cell-based; conditions: for IC50: RCC4, 96 h
RCC4/VHL [11] = test: Cytotoxicity against VHL-positive human RCC4/VHL cells assessed as reduction in cell viability incubated for 4 days by XTT assay; format: functional, cell-based; conditions: for IC50: 96 h
[12] = Cytotoxicity against VHL-deficient human RCC10 cells assessed as reduction in cell viability incubated for 4 days by XTT assay; format: functional, cell-based; conditions: 96 h
786-0 [13] = test: Cytotoxicity against VHL-deficient human 786-0 cells assessed as reduction in cell viability incubated for 4 days by XTT assay; format: functional, cell-based; conditions: 786-0, 96 h
786-0 [14] = test: Cytotoxicity against VHL-positive human 786-0 cells assessed as reduction in cell viability incubated for 4 days by XTT assay; format: functional, cell-based; conditions: 786-0, 96 h
RCC4 [15] = test: Induction of apoptosis in VHL-deficient human RCC4 cells assessed as cleavage of pro-caspase 3 after 24 hrs by Western blot analysis; format: functional, cell-based
RCC4 [16] = test: Induction of DNA damage in VHL-deficient human RCC4 cells assessed as induction of p53 expression at 2.5 to 10 uM incubated for 24 hrs by Western blot analysis; format: functional, cell-based
RCC4/VHL [17] = test: Induction of DNA damage in human RCC4/VHL cells assessed as induction of p53 expression at 2.5 to 10 uM incubated for 24 hrs by Western blot analysis; format: functional, cell-based
RCC4/VHL [18] = test: Induction of autophagy in human RCC4/VHL cells assessed as increase in conversion of LC3B1 to LC3B2 expression at 2.5 to 10 uM incubated for 24 hrs by Western blot analysis; format: functional, cell-based
RCC4 [19] = test: Inhibition of autophagic flux in VHL-deficient human RCC4 cells assessed as increase in p62 expression at 2.5 to 10 uM incubated for 24 hrs by Western blot analysis; format: functional, cell-based
RCC4/VHL [20] = test: Inhibition of autophagic flux in human RCC4/VHL cells assessed as increase in p62 expression at 2.5 to 10 uM incubated for 24 hrs by Western blot analysis; format: functional, cell-based
RCC4 [21] = test: Induction of autophagy in VHL-deficient human RCC4 cells assessed as increase in LC3B1 expression incubated for 24 hrs by Western blot analysis; format: functional, cell-based
RCC4 [22] = test: Induction of autophagy in VHL-deficient human RCC4 cells assessed as increase in LC3B2 expression incubated for 24 hrs by Western blot analysis; format: functional, cell-based
RCC4/VHL [23] = test: Induction of autophagy in human RCC4/VHL cells assessed as increase in LC3B1 expression incubated for 24 hrs by Western blot analysis; format: functional, cell-based
RCC4/VHL [24] = test: Induction of autophagy in human RCC4/VHL cells assessed as increase in LC3B2 expression incubated for 24 hrs by Western blot analysis; format: functional, cell-based
[25] = Selectivity ratio of IC50 for VHL-positive human RCC4/VHL cells to IC50 for VHL-deficient human RCC4 cells; format: functional
RCC4 [26] = test: Induction of cellular phenotype changes in VHL-deficient human RCC4 cells at 2.5 to 10 uM incubated for 24 hrs by inverted microscopic analysis; format: functional, cell-based
RCC4/VHL [27] = test: Induction of cellular phenotype changes in human RCC4/VHL cells at 2.5 to 10 uM incubated for 24 hrs by inverted microscopic analysis; format: functional, cell-based
RCC4 [28] = test: Induction of DNA damage in VHL-deficient human RCC4 cells assessed as induction of p53 expression at 1.25 uM incubated for 24 hrs by Western blot analysis; format: functional, cell-based
RCC4/VHL [29] = test: Induction of DNA damage in human RCC4/VHL cells assessed as induction of p53 expression at 1.25 uM incubated for 24 hrs by Western blot analysis; format: functional, cell-based
RCC4 [30] = test: Induction of autophagy in VHL-deficient human RCC4 cells assessed as increase in conversion of LC3B1 to LC3B2 expression at 1.25 uM incubated for 24 hrs by Western blot analysis; format: functional, cell-based
RCC4/VHL [31] = test: Induction of autophagy in human RCC4/VHL cells assessed as increase in conversion of LC3B1 to LC3B2 expression at 1.25 uM incubated for 24 hrs by Western blot analysis; format: functional, cell-based
RCC4 [32] = test: Inhibition of autophagic flux in VHL-deficient human RCC4 cells assessed as increase in p62 expression at 1.25 uM incubated for 24 hrs by Western blot analysis; format: functional, cell-based
RCC4/VHL [33] = test: Inhibition of autophagic flux in human RCC4/VHL cells assessed as increase in p62 expression at 1.25 uM incubated for 24 hrs by Western blot analysis; format: functional, cell-based
RCC4 [34] = test: Induction of apoptosis in VHL-deficient human RCC4 cells assessed as cleavage of pro-caspase 3 at 1.25 uM incubated for 24 hrs by Western blot analysis; format: functional, cell-based
RCC4 [35] = test: Induction of cellular phenotype changes in VHL-deficient human RCC4 cells at 1.25 uM incubated for 24 hrs by inverted microscopic analysis; format: functional, cell-based
RCC4/VHL [36] = test: Induction of apoptosis in human RCC4/VHL cells assessed as cleavage of pro-caspase 3 at 1.25 uM incubated for 24 hrs by Western blot analysis; format: functional, cell-based
RCC4/VHL [37] = test: Induction of cellular phenotype changes in human RCC4/VHL cells at 1.25 uM incubated for 24 hrs by inverted microscopic analysis; format: functional, cell-based
RCC4 [38] = test: Induction of apoptosis in VHL-deficient human RCC4 cells assessed as cleavage of pro-caspase 3 at 0.5 uM incubated for 24 hrs by Western blot analysis; format: functional, cell-based
DNA [39] = test: Induction of DNA damage in VHL-deficient human RCC4 cells assessed as increase in p53 expression at 0.5 uM incubated for 24 hrs by Western blot analysis; format: cell-based
DNA [40] = test: Induction of DNA damage in human RCC4/VHL cells assessed as increase in p53 expression at 0.5 uM incubated for 24 hrs by Western blot analysis; format: cell-based
RCC4/VHL [41] = test: Induction of apoptosis in human RCC4/VHL cells assessed as cleavage of pro-caspase 3 at 0.5 uM incubated for 24 hrs by Western blot analysis; format: functional, cell-based
[42] = biological target: T1, Polyunsaturated fatty acid 5-lipoxygenase (Homo sapiens); test: Inhibition of human 5-LO transfected in HEK293 cells coexpressing FLAP assessed as reduction in leukotriene formation at 1 uM using arachidonic acid as substrate preincubated for 5 mins followed by calcium ionophore A23187/arachidonic acid addition and measured after 15 mins by RP-HPLC analysis; format: cell-based

SMILES: Cc1cccc(Nc2nc(-c3ccncc3)cs2)c1
IC50 [8]: 12.6 µM
IC50 (RCC4 [10]): 1.2 µM
IC50 (RCC4/VHL [11]): 5.3 µM
IC50 [12]: 8.6 µM
IC50 (786-0 [13]): 5.7 µM
IC50 (786-0 [14]): 6.9 µM
Activity (RCC4 [28]): inactive
Activity (RCC4/VHL [29]): inactive
Activity (RCC4 [30]): Active
Activity (RCC4/VHL [31]): Active
inhibition (RCC4 [32]): Active
inhibition (RCC4/VHL [33]): Active
Ratio IC50 [25]: 4.4
Activity (RCC4 [34]): inactive
Activity (RCC4 [35]): inactive
Activity (RCC4/VHL [36]): inactive
Activity (RCC4/VHL [37]): inactive

SMILES: COc1cccc2c1C(=O)c1c(O)c3c(c(O)c1C2=O)C[C@@](O)(C(=O)CO)C[C@@H]3O[C@H]1C[C@H](N)[C@H](O)[C@H](C)O1
Activity (RCC4 [38]): inactive
Activity (DNA [39]): Active
Activity (DNA [40]): Active
Activity (RCC4/VHL [41]): inactive

SMILES: O=C(OCCc1ccccc1)c1cc(O)ccc1O
inhibition [42]: inactive
IC50 [7]: 17.3 µM
IC50 [8]: 3.9 µM
IC50 (RCC4 [10]): 42.8 µM
IC50 (RCC4/VHL [11]): > 100 µM
IC50 [12]: 14.8 µM
IC50 (786-0 [13]): > 100 µM
IC50 (786-0 [14]): > 100 µM

More lines, main results first:

Activity [1]: 100%
SMILES: O=C(/C=C/c1cc(O)cc(O)c1)OCCc1ccccc1

Activity [1]: 100%
SMILES: O=C(/C=C/c1ccc(O)cc1O)OCCc1ccccc1

inhibition [2]: > 50%
inhibition [3]: Dose-dependent effect
IC50 [4]: 0.33 µM
Ratio IC50 [5]: 7
Ratio IC50 [6]: 3
IC50 [7]: 16.4 µM
Activity [1]: 25%
SMILES: O=C(/C=C/c1cc(O)ccc1O)OCCc1ccccc1
IC50 [8]: 0.96 µM
Activity (RCC4 [9]): Active
Activity (RCC4 [10]): Dose-dependent effect
IC50 (RCC4 [10]): 8 µM
Activity (RCC4/VHL [11]): Dose-dependent effect
IC50 (RCC4/VHL [11]): 99.6 µM
IC50 [12]: 5.04 µM
IC50 (786-0 [13]): 34.8 µM
IC50 (786-0 [14]): > 100 µM
Activity (RCC4 [15]): Dose-dependent effect
Activity (RCC4 [16]): inactive
Activity (RCC4/VHL [17]): inactive
Activity (RCC4/VHL [18]): Active
inhibition (RCC4 [19]): Active
inhibition (RCC4/VHL [20]): Active
Activity (RCC4 [21]): Dose-dependent effect
Activity (RCC4 [22]): Dose-dependent effect
Activity (RCC4/VHL [23]): Dose-dependent effect
Activity (RCC4/VHL [24]): Dose-dependent effect
Ratio IC50 [25]: 12
Activity (RCC4 [26]): inactive
Activity (RCC4/VHL [27]): inactive

inhibition [42]: Active
inhibition [2]: Active
IC50 [7]: 18.2 µM
SMILES: O=C(/C=C/c1ccc(O)c(O)c1)OCCc1ccccc1 [CAFFEIC ACID PHENETHYL ESTER]
IC50 [8]: 12.6 µM
IC50 (RCC4 [10]): 14 µM
IC50 (RCC4/VHL [11]): 29.1 µM
IC50 [12]: 19.8 µM
IC50 (786-0 [13]): 26.8 µM
IC50 (786-0 [14]): 43.8 µM
Ratio IC50 [25]: 2.1

— ChEMBL document CHEMBL4414547, “Discovery of a novel 2,5-dihydroxycinnamic acid-based 5-lipoxygenase inhibitor that induces apoptosis and may impair autophagic flux in RCC4 renal cancer cells” (Eur J Med Chem, 2019)
